≈ marks a conversion by molar mass, not a printed value.
Details: buffer; pH 7.4; 200.0 µM

SMILES	solubility kinetic [µg/mL]
Cc1[nH]c(=O)[nH]c(=O)c1S(=O)(=O)N1CCCCC1	> 41
CCOC(=O)c1ccc(S(=O)(=O)Nc2cc(S(=O)(=O)N3CCOCC3)ccc2O)cc1	69.5 (≈ 148 µM)
CN=C(Nc1ccc(C(=O)OC)s1)c1ccccc1	29.6 (≈ 108 µM)
Cn1cc(C(=O)OCC(=O)Nc2ccccc2)c2ccccc21	7.8 (≈ 25.3 µM)
Cc1sc2nc(-c3cccs3)oc(=O)c2c1C	< 0.6
Cc1cc(C)c(NC(=O)c2cccc(NC(=O)c3ccco3)c2)c(C)c1	44.3 (≈ 127 µM)
O=C(CN1CCCC1)Nc1c(Cl)cccc1Cl	36.9 (≈ 135 µM)
O=C(Nc1nc2ccccc2[nH]1)Nc1ccccc1F	3.3 (≈ 12.2 µM)
O=C(COC(=O)c1cc(=O)[nH]c2ccccc12)Nc1ccccc1F	19.7 (≈ 57.9 µM)
COc1cc(/C=C2/C(=O)ON=C2C)cc(Cl)c1O	> 40.2
CCC(=O)Nc1cccc(-c2cn3cccc(C)c3n2)c1	39.8 (≈ 142 µM)
Cc1occc1C(=O)N1CCCC(Nc2ccc(F)c(F)c2)C1 (stereo not drawn)	46.6 (≈ 145 µM)
Cc1cccc(NC(=O)Nc2ccc(F)cc2)n1	1.6 (≈ 6.52 µM)
CSc1cccc(NC(=S)N2CCC(c3ccccc3)C2)c1 (stereo not drawn)	2.2 (≈ 6.7 µM)
O=C1CSC(c2ccc([N+](=O)[O-])cc2)N1c1ccccc1F (stereo not drawn)	> 47.7
N/C(=N/OC(=O)c1cccc([N+](=O)[O-])c1)c1cccc([N+](=O)[O-])c1	0.5 (≈ 1.51 µM)
N#Cc1c(-c2ccco2)ccn(Cc2ccc(F)cc2)c1=O	9 (≈ 30.6 µM)
Cc1ccc2c(C(=O)CCl)c(C)[nH]c2c1	3.4 (≈ 15.3 µM)
O=C1Nc2cccnc2N(C(=O)CCl)c2ccccc21	> 43.2
N/C(Cc1ccc([N+](=O)[O-])cc1)=N\OC(=O)c1ccco1	18 (≈ 62.2 µM)
CCOC(=O)c1c(NC(=S)Nc2cccnc2)sc(C)c1C	20.1 (≈ 59.9 µM)
NC(=O)c1cnn(-c2ccc3ccccc3c2)c1N	> 37.8
O=C(Nc1ccc(F)c(F)c1)c1ccco1	> 33.5
Cc1cc(C)c(C)c(S(=O)(=O)N[C@@H](C)C(=O)OCC(N)=O)c1C	> 51.4

Next, values leading:

solubility kinetic [µg/mL]	SMILES
26.1 (≈ 79.5 µM)	COc1cc2c(cc1OC)C(c1cccc([N+](=O)[O-])c1)NC(=O)C2 (stereo not drawn)
47.9 (≈ 150 µM)	O=C(NCCCc1ccccc1)c1cncc(Br)c1
30.6 (≈ 99.5 µM)	O=C(Nc1nccs1)[C@@H]1CCCN1C(=O)c1cccs1
5.5 (≈ 17.9 µM)	Cc1cc(C(=O)OC(C)C(=O)NC2CCCCC2C)c(C)o1 (stereo not drawn)
> 43.3	CC1Oc2ccccc2N(CC(=O)N2CCCCC2)C1=O (stereo not drawn)
35 (≈ 113 µM)	CC1CCCCN1C(=O)CCS(=O)(=O)Cc1ccccc1 (stereo not drawn)
0.8 (≈ 2.38 µM)	Cc1nc(NC(=O)C2CC2)sc1C(=O)Nc1cccc(Cl)c1
43.6 (≈ 147 µM)	COC(=O)CCCN1C(=O)c2cccc3cccc(c23)C1=O
> 39	COCCCNC1CS(=O)(=O)CC1O.Cl (stereo not drawn)
> 36.6	Nc1cnn(C2OC(CO)C(O)C2O)c(=O)n1 (stereo not drawn)
> 46.7	CCCCc1nnc(SCC(=O)Nc2nccs2)n1C
> 42.9	COc1ccccc1C(=O)OC1CCCN(C)C1.Cl (stereo not drawn)
> 53.6	CCCCN(C)C(=O)c1ccc2c(c1)S(=O)(=O)c1ccccc1C2=O
> 41	COc1cccc(CN(C)Cc2nc(C3CC3)no2)c1
40.8 (≈ 140 µM)	COc1ccccc1OCC(=O)NC1CCCCCCC1
43.6 (≈ 145 µM)	CC(C)CN1CCN(CC#Cc2ccccc2)CC1CCO (stereo not drawn)
50.6 (≈ 143 µM)	O=C(CSc1nc2ccc([N+](=O)[O-])cc2s1)NCC1CCCO1 (stereo not drawn)
37.6 (≈ 148 µM)	O=C(NC(=S)NCC1CCCO1)c1ccco1 (stereo not drawn)
50.8 (≈ 140 µM)	O=C(CC(=O)Nc1nc(C23CC4CC(CC(C4)C2)C3)cs1)NCCO

Reference: PubChem BioAssay AID1996
